Test results as given in patent US20240116951A1, “HETEROCYCLIC COMPOUNDS AND USES THEREOF” (Kumquat Biosciences Inc., priority 2022, published 2024).

How the values were obtained:
Assay type in all cases: binding
KRAS WT = target: T1, KRAS WT (Homo sapiens, UniProt P01116); assay: HTRF assay of wildtype K-Ras interaction with SOS1 (PPI-HTRF); details: HTRF, 5 nM KRAS WT; read-out: PPI-HTRF-5 nM KRAS WT
T1 construct: made in house; host or cells: E. coli, e.g. BL21 (DE3)
Procedure, shortened: (§1)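 Equilibrium binding between GST-K-Ras and His-tagged human SOS1 is measured by FRET from a europium anti-GST donor to an XL665 anti-His acceptor. Compounds are run in duplicate at 10, 2.5, 0.63, 0.16, 0.04 and 0.01 μM, and IC50 is calculated from the 665/620 nm ratio.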

KRAS G12D = target: T2, KRAS G12D (Homo sapiens, UniProt P01116, G12D); assay: HTRF assay of K-Ras G12D interaction with SOS1 (PPI-HTRF); details: HTRF, 5 nM KRAS G12D; read-out: PPI-HTRF-5 nM KRAS G12D
T2 construct: made in house; host or cells: E. coli, e.g. BL21 (DE3)
T2 sequence (P01116 1-188 isoform P01116-2 G12D): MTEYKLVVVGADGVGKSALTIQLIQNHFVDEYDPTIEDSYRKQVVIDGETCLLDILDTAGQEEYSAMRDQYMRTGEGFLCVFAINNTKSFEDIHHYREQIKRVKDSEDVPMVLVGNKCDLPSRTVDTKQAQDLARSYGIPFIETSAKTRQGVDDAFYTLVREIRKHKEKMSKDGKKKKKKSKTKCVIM
Procedure, shortened: as §1

KRAS G12S = target: T3, KRAS G12S (Homo sapiens, UniProt P01116, G12S); assay: HTRF assay of K-Ras G12S interaction with SOS1 (PPI-HTRF); details: 5 nM KRAS G12S, read-out: PPI-HTRF-5 nM KRAS G12S
T3 construct: made in house; host or cells: E. coli, e.g. BL21 (DE3)
T3 sequence (P01116 1-188 isoform P01116-2 G12S): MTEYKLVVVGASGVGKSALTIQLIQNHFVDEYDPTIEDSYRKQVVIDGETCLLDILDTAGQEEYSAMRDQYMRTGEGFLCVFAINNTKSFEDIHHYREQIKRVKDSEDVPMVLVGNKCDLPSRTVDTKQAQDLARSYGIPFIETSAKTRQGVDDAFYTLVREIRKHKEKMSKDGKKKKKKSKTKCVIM
Procedure, shortened: as §1

T1 sequence (P01116 1-188 isoform P01116-2): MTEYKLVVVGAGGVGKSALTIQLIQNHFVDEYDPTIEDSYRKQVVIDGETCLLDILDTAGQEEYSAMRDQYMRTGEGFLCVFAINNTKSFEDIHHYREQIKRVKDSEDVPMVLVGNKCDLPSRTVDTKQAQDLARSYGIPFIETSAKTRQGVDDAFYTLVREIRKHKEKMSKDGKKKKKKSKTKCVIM

Row | SMILES | IC50 (KRAS WT) [µM] | IC50 (KRAS G12D) [µM] | IC50 (KRAS G12S) [µM]
1 | C#Cc1c(F)ccc2cc(O)cc(-c3ncc4c(N5CCC6(CCN6C(=O)n6cncn6)C5)nc(O[C@@H](C)[C@@H]5CCCN5C)nc4c3F)c12 (stereo partly drawn) [Compound 256, (6-(7-(8-ethynyl-7-fluoro-3-hydroxynaphthalen-1-yl)-8-fluoro-2-((S)-1-((S)-1-methylpyrrolidin-2-yl)ethoxy)pyrido[4,3-d]pyrimidin-4-yl)-1,6-diazaspiro[3.4]octan-1-yl)(1H-1,2,4-triazol-1-yl)methanone] | > 5 | > 5 | < 5
2 | Nc1nc2c(-c3ccc4c(N5CCC6(CCN6)CC5)nc(OC[C@@]56CCCN5C[C@H](F)C6)nc4c3F)ccc(F)c2s1 [Compound 204, 7-fluoro-4-(8-fluoro-2-(((2R,7aS)-2-fluorotetrahydro-1H-pyrrolizin-7a(5H)-yl)methoxy)-4-(1,7-diazaspiro[3.5]nonan-7-yl)quinazolin-7-yl)benzo[d]thiazol-2-amine] | < 5 | < 5 | < 5
3 | C[C@H](Oc1nc(N2CCC3(CCN3C(=O)n3cncn3)C2)c2cc(Cl)c(-c3ccc(F)c4sc(N)c(C#N)c34)c(F)c2n1)[C@@H]1CCCN1C (stereo partly drawn) [Compound 207, 4-(4-(1-(1H-1,2,4-triazole-1-carbonyl)-1,6-diazaspiro[3.4]octan-6-yl)-6-chloro-8-fluoro-2-((S)-1-((S)-1-methylpyrrolidin-2-yl)ethoxy)quinazolin-7-yl)-2-amino-7-fluorobenzo[b]thiophene-3-carbonitrile] | < 5 | < 5 | < 5
4 | CC(C)=C(C#N)C(=O)N1CCC12CCN(c1nc(OC[C@@]34CCCN3C[C@H](F)C4)nc3c(F)c(-c4ccc(F)c5sc(N)c(C#N)c45)c(Cl)cc13)C2 (stereo partly drawn) [Compound 297, 2-amino-4-(6-chloro-4-(1-(2-cyano-3-methylbut-2-enoyl)-1,6-diazaspiro[3.4]octan-6-yl)-8-fluoro-2-(((2R,7aS)-2-fluorotetrahydro-1H-pyrrolizin-7a(5H)-yl)methoxy)quinazolin-7-yl)-7-fluorobenzo[b]thiophene-3-carbonitrile] | < 5 | < 5 | < 5
5 | Nc1nc2c(-c3c(Cl)cc4c(N5CC6(CCN6)C5)nc(OC[C@@]56CCCN5C[C@H](F)C6)nc4c3F)ccc(F)c2s1 [Compound 259, 4-(6-chloro-8-fluoro-2-(((2R,7aS)-2-fluorotetrahydro-1H-pyrrolizin-7a(5H)-yl)methoxy)-4-(1,6-diazaspiro[3.3]heptan-6-yl)quinazolin-7-yl)-7-fluorobenzo[d]thiazol-2-amine] | < 5 | < 5 | < 5
6 | N#Cc1c(N)sc2c(F)ccc(-c3c(Cl)cc4c(N5CCC6(C5)N(C(=O)n5cncn5)CC6(F)F)nc(OC[C@@]56CCCN5C[C@H](F)C6)nc4c3F)c12 (stereo partly drawn) [Compound 283, 2-amino-4-(6-chloro-4-(3,3-difluoro-1-(1H-1,2,4-triazole-1-carbonyl)-1,6-diazaspiro[3.4]octan-6-yl)-8-fluoro-2-(((2R,7aS)-2-fluorotetrahydro-1H-pyrrolizin-7a(5H)-yl)methoxy)quinazolin-7-yl)-7-fluorobenzo[b]thiophene-3-carbonitrile] | < 5 | < 5 | < 5
7 | N#Cc1c(N)sc2c(F)ccc(-c3c(Cl)cc4c(N5CCC6(CCN6C(=O)CCl)C5)nc(OC[C@@]56CCCN5C[C@H](F)C6)nc4c3F)c12 (stereo partly drawn) [Compound 294, 2-amino-4-(6-chloro-4-(1-(2-chloroacetyl)-1,6-diazaspiro[3.4]octan-6-yl)-8-fluoro-2-(((2R,7aS)-2-fluorotetrahydro-1H-pyrrolizin-7a(5H)-yl)methoxy)quinazolin-7-yl)-7-fluorobenzo[b]thiophene-3-carbonitrile] | < 5 | < 5 | < 5
8 | N#Cc1c(N)sc2c(F)ccc(-c3c(Cl)cc4c(N5CC6(CCN6C(=O)n6cncn6)CC5COC(F)F)nc(OC[C@@]56CCCN5C[C@H](F)C6)nc4c3F)c12 (stereo partly drawn) [Compound 326, 2-amino-4-(6-chloro-4-(7-((difluoromethoxy)methyl)-1-(1H-1,2,4-triazole-1-carbonyl)-1,6-diazaspiro[3.4]octan-6-yl)-8-fluoro-2-(((2R,7aS)-2-fluorotetrahydro-1H-pyrrolizin-7a(5H)-yl)methoxy)quinazolin-7-yl)-7-fluorobenzo[b]thiophene-3-carbonitrile] | < 5 | < 5 | < 5
9 | C[C@H]1N(c2nc(OC[C@@]34CCCN3C[C@H](F)C4)nc3c(F)c(-c4ccc(F)c5sc(N)c(C#N)c45)c(Cl)cc23)CC[C@@]12CCN2C(=O)n1cnc(Cl)n1 [Compound 263, 2-amino-4-(6-chloro-4-((4R,5R)-1-(3-chloro-1H-1,2,4-triazole-1-carbonyl)-5-methyl-1,6-diazaspiro[3.4]octan-6-yl)-8-fluoro-2-(((2R,7aS)-2-fluorotetrahydro-1H-pyrrolizin-7a(5H)-yl)methoxy)quinazolin-7-yl)-7-fluorobenzo[b]thiophene-3-carbonitrile] | < 5 | < 5 | < 5

Further lines, results first:

Row | IC50 (KRAS WT) [µM] | IC50 (KRAS G12D) [µM] | IC50 (KRAS G12S) [µM] | SMILES
10 | < 5 | < 5 | < 5 | N#Cc1c(N)sc2c(F)ccc(-c3c(Cl)cc4c(N5CCC6(CCN6C(=O)ON6C(=O)CCC6=O)C5)nc(OC[C@@]56CCCN5C[C@H](F)C6)nc4c3F)c12 (stereo partly drawn) [Compound 243, 2,5-dioxopyrrolidin-1-yl 6-(7-(2-amino-3-cyano-7-fluorobenzo[b]thiophen-4-yl)-6-chloro-8-fluoro-2-(((2R,7aS)-2-fluorotetrahydro-1H-pyrrolizin-7a(5H)-yl)methoxy)quinazolin-4-yl)-1,6-diazaspiro[3.4]octane-1-carboxylate]
11 | < 5 | < 5 | < 5 | N#Cc1c(N)sc2c(F)ccc(-c3c(Cl)cc4c(N5CC[C@]6(CCN6)C5)nc(OC[C@@]56CCCN5C[C@H](F)C6)nc4c3F)c12 [Compound 285, 2-amino-4-(6-chloro-8-fluoro-2-(((2R,7aS)-2-fluorotetrahydro-1H-pyrrolizin-7a(5H)-yl)methoxy)-4-((R)-1,6-diazaspiro[3.4]octan-6-yl)quinazolin-7-yl)-7-fluorobenzo[b]thiophene-3-carbonitrile]
12 | < 5 | < 5 | < 5 | N#Cc1c(N)sc2c(F)ccc(-c3c(Cl)cc4c(N5CCC6(CCCCN6C(=O)n6cncn6)C5)nc(OC[C@@]56CCCN5C[C@H](F)C6)nc4c3F)c12 (stereo partly drawn) [Compound 216, 4-(4-(6-(1H-1,2,4-triazole-1-carbonyl)-2,6-diazaspiro[4.5]decan-2-yl)-6-chloro-8-fluoro-2-(((2R,7aS)-2-fluorotetrahydro-1H-pyrrolizin-7a(5H)-yl)methoxy)quinazolin-7-yl)-2-amino-7-fluorobenzo[b]thiophene-3-carbonitrile]
13 | < 5 | < 5 | < 5 | N#Cc1c(N)sc2c(F)ccc(-c3c(Cl)cc4c(N5CC[C@@]6(CCN6C(=O)n6cncn6)C5)nc(OC[C@@]56CCCN5C[C@H](F)C6)nc4c3F)c12 (single isomer, unassigned) [Compound 234]
14 | < 5 | < 5 | < 5 | N#CCC(=O)N1CC[C@@]12CCN(c1nc(OC[C@@]34CCCN3C[C@H](F)C4)nc3c(F)c(-c4ccc(F)c5sc(N)c(C#N)c45)c(Cl)cc13)C2 [Compound 316]
15 | < 5 | < 5 | < 5 | Nc1nc2c(-c3c(Cl)cc4c(N5CC6(CNCCN6)C5)nc(OC[C@@]56CCCN5C[C@H](F)C6)nc4c3F)ccc(F)c2s1 [Compound 205, 4-(6-chloro-8-fluoro-2-(((2R,7aS)-2-fluorotetrahydro-1H-pyrrolizin-7a(5H)-yl)methoxy)-4-(2,5,8-triazaspiro[3.5]nonan-2-yl)quinazolin-7-yl)-7-fluorobenzo[d]thiazol-2-amine]
16 | < 5 | < 5 | < 5 | Cc1nc(C(C)C)nn1C(=O)N1CCOCC12CCN(c1nc(OC[C@@]34CCCN3C[C@H](F)C4)nc3c(F)c(-c4ccc(F)c5sc(N)c(C#N)c45)c(Cl)cc13)C2 (stereo partly drawn) [Compound 337, 2-Amino-4-(6-chloro-8-fluoro-2-(((2R,7aS)-2-fluorotetrahydro-1H-pyrrolizin-7a(5H)-yl)methoxy)-4-(6-(3-isopropyl-5-methyl-1H-1,2,4-triazole-1-carbonyl)-9-oxa-2,6-diazaspiro[4.5]decan-2-yl)quinazolin-7-yl)-7-fluorobenzo[b]thiophene-3-carbonitrile]
17 | < 5 | < 5 | < 5 | C[C@H](Oc1nc(N2CCC3(CCN3C(=O)c3ccnn3C)C2)c2cc(Cl)c(-c3ccc(F)c4sc(N)c(C#N)c34)c(F)c2n1)[C@@H]1CCCN1C (stereo partly drawn) [Compound 274, 2-amino-4-(6-chloro-8-fluoro-4-(1-(1-methyl-1H-pyrazole-5-carbonyl)-1,6-diazaspiro[3.4]octan-6-yl)-2-((S)-1-((S)-1-methylpyrrolidin-2-yl)ethoxy)quinazolin-7-yl)-7-fluorobenzo[b]thiophene-3-carbonitrile]
18 | < 5 | < 5 | < 5 | N#Cc1c(N)sc2c(F)ccc(-c3c(Cl)cc4c(N5CCC6(CCN6C(=O)C(Cl)Cl)C5)nc(OC[C@@]56CCCN5C[C@H](F)C6)nc4c3F)c12 (stereo partly drawn) [Compound 347, 2-amino-4-(6-chloro-4-(1-(2,2-dichloroacetyl)-1,6-diazaspiro[3.4]octan-6-yl)-8-fluoro-2-(((2R,7aS)-2-fluorotetrahydro-1H-pyrrolizin-7a(5H)-yl)methoxy)quinazolin-7-yl)-7-fluorobenzo[b]thiophene-3-carbonitrile]
